Earlier results, collected in patent publication US20260048030A1, “REPARIXIN LIQUID SUSPENSIONS” (Dompe' Farmaceutici SPA, priority 2022, published 2026).

Tested on: hospitalized patients with severe COVID-19 pneumonia
Details: phase 2

Question: With `CC(C)Cc1ccc([C@@H](C)C(=O)NS(C)(=O)=O)cc1` [Reparixin, R-(−)-2-(4-isobutylphenyl)propionyl methansulfonamide] as the compound, how does the “Clinical outcomes compared with the standard of care” value read?
Answer: improved clinical outcomes
